According to patent publication US10239887B2, “Positive allosteric modulators of the muscarinic acetylcholine receptor M4” (Vanderbilt University, priority 2016, dated 2019):
Structures can show the parent of a compound that is named as a salt. Where two headings read alike, the source gives them in different places.

Molecular target: T1, human mAChR M4 (Homo sapiens, UniProt P08173)
T1 sequence (P08173 1-479): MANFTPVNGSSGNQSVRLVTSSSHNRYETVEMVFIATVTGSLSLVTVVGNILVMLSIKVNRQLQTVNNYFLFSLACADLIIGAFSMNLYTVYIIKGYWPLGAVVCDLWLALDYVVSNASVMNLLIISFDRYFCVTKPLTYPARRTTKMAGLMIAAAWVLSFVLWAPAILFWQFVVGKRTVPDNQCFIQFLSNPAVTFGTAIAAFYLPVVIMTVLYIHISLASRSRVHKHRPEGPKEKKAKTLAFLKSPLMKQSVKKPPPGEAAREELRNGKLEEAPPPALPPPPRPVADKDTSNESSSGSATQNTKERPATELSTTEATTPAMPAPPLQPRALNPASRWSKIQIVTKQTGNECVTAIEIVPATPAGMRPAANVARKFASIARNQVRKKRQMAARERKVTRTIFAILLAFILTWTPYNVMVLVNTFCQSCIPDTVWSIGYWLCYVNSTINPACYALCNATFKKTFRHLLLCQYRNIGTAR
Experiment: mAChR M4 cell-based functional assay (calcium flux), human M4
Settings: for Emax: % ACh maximum at 30 μM

[1] = Human M4 EC50, CHO-K1 hM4-Gqi5 cells, calcium flux, increase in EC20 acetylcholine response
[2] = Human M4 EC50 (nM), Table 10, calcium flux, PAM activity with EC20 acetylcholine
[3] = Human M4 EC50 (nM), Table 11, calcium flux, PAM activity with EC20 acetylcholine

EC50 [2] [nM] | Emax (Table 10) [%] | Structure (SMILES) | also measured
 |  | Cc1nnc2oc3c(NC4CC5(COC5)C4)ncnc3c2c1C [Compound 71, 3,4-dimethyl-N-(2-oxaspiro[3.3]heptan-6-yl)pyrimido[4′,5′:4,5] furo[2,3-c]pyridazin-8-amine] | Emax (Human M4): 37.2%; EC50 [1]: > 10000 nM
172 | 58.7 | Cc1cc(C)c2c(n1)sc1c(N3CCC3)ncnc12 [Compound 197, 4-(azetidin-1-yl)-7,9-dimethyl-pyrido [3′,2′:4,5]thieno[3,2-d] pyrimidine] | 
1440 | 42.9 | Cc1nnc2sc3c(NC4CC5(C4)CN(c4ncc(F)cc4Cl)C5)ncnc3c2c1C [Compound 163, N-[2-(3-chloro-5-fluoro-2-pyridyl)-2-azaspiro [3.3]heptan-6-yl]-3,4-dimethyl-pyrimido [4′,5′:4,5]thieno[2,3-c] pyridazin-8-amine] | 
1030 | 97.1 | Cc1nnc2sc3c(NCc4ccc(F)c(C(=O)NC5CCCC5)c4)ncnc3c2c1C [Compound 178, N-cyclopentyl-5-[[(3,4-dimethylpyrimido [4′,5′:4,5]thieno[2,3-c]pyridazin-8-yl)amino]methyl]-2-fluoro-benzamide] | 
 |  | Cc1nnc2sc3c(N4CC(Oc5cnn(C)c5)C4)ncnc3c2c1C [Compound 357, 3,4-dimethyl-8-[3-(1-methylpyrazol-4-yl)oxyazetidin-1-yl]pyrimido [4′,5′:4,5]thieno[2,3-c] pyridazine dihydrochloride] | EC50 [3]: 1400 nM; Emax (Table 11): 41.3%
 |  | Cc1nnc2sc3c(N4CC[C@H](Oc5ccnc(C(F)(F)F)c5)C4)ncnc3c2c1C [Compound 331, 3,4-dimethyl-8-[(3S)-3-[[2-(trifluoromethyl)-4-pyridyl]oxy]pyrrolidin-1-yl]pyrimido [4′,5′:4,5]thieno[2,3-c] pyridazine] | EC50 [3]: 142 nM; Emax (Table 11): 80.6%
980 | 86 | Cc1nnc2sc3c(NCc4ccc(C(=O)NC5CCC(C)(C)CC5)cc4)ncnc3c2c1C [Compound 160, N-(4,4-dimethylcyclohexyl)-4-[[(3,4-dimethylpyrimido [4′,5′:4,5]thieno[2,3-c]pyridazin-8-yl)amino]methyl]benzamide] | 
276 | 88.4 | Cc1nnc2sc3c(NCc4ccc(C(=O)N5CCC5)cc4)ncnc3c2c1C [Compound 131, azetidin-1-yl-[4-[[(3,4-dimethylpyrimido [4′,5′:4,5]thieno[2,3-c]pyridazin-8-yl)amino]methyl]phenyl]methanone] | 
5660 | 61.2 | COc1ccc(C2CC2Nc2ncnc3c2sc2ncc(Cl)c(C)c23)cc1 (stereo not drawn) [Compound 236, 8-chloro-N-[2-(4-methoxyphenyl)cyclopropyl]-9-methyl-pyrido [3′,2′:4,5]thieno[3,2-d] pyrimidin-4-amine dihydrochloride] | 
555 | 47.8 | Cc1c(Cl)cnc2sc3c(N4CC5CC5C4)ncnc3c12 (stereo not drawn) [Compound 219, 4-(3-azabicyclo[3.1.0]hexan-3-yl)-8-chloro-9-methyl-pyrido [3′,2′:4,5]thieno[3,2-d] pyrimidine] | 
 |  | Cc1nnc2sc3c(NCc4ccc(-c5cccnc5F)cc4)ncnc3c2c1C [Compound 29, N-(4-(2-fluoropyridin-3-yl)benzyl)-3,4-dimethylpyrimido [4′,5′:4,5]thieno[2,3-c] pyridazin-8-amine] | Emax (Human M4): 61%; EC50 [1]: 4050 nM
294 | 34.5 | Cc1cc(C)c2c(n1)sc1c(NCc3ccc(S(C)(=O)=O)cc3)ncnc12 [Compound 204, 7,9-dimethyl-N-[(4-methylsulfonylphenyl)methyl]pyrido [3′,2′:4,5]thieno[3,2-d] pyrimidin-4-amine] | 
 |  | Cc1nnc2sc3c(NCc4ccc(C(C)(O)CO)cc4)ncnc3c2c1C (stereo not drawn) [Compound 373, 2-[4-[[(3,4-dimethylpyrimido[4′,5′:4,5]thieno[2,3-c]pyridazin-8-yl)amino]methyl]phenyl] propane-1,2-diol] | EC50: 69.2 nM; Emax (Table 11): 98%
 |  | Cc1nnc2sc3c(NC4CN(c5ncc(Cl)cc5Cl)C4)ncnc3c2c1C [Compound 314, N-[1-(3,5-dichloro-2-pyridyl)azetidin-3-yl]-3,4-dimethyl-pyrimido [4′,5′:4,5]thieno[2,3-c] pyridazin-8-amine] | EC50 [3]: 1830 nM; Emax (Table 11): 71.5%
288 | 59.7 | Cc1nc(C2CC2)ccc1N1CC(Nc2ncnc3c2sc2nnc(C)c(C)c23)C1 [Compound 83, N-[1-(6-cyclopropyl-2-methyl-3-pyridyl)azetidin-3-yl]-3,4-dimethyl-pyrimido [4′,5′:4,5]thieno[2,3-c] pyridazin-8-amine] | 
1400 | 54.2 | Cc1cc(C)c2c(n1)sc1c(NCc3cnc(C)nc3)ncnc12 [Compound 205, 7,9-dimethyl-N-[(2-methylpyrimidin-5-yl)methyl]pyrido[3′,2′:4,5] thieno[3,2-d] pyrimidin-4-amine] | 

EC50 [2] [nM] | Emax (Table 10) [%] | Structure (SMILES) | also measured
1840 | 59.5 | Cc1nc2sc3c(NCC4CCOC4)ncnc3c2c(C)c1Cl (stereo not drawn) [Compound 273, 8-chloro-7,9-dimethyl-N-(tetrahydrofuran-3-ylmethyl) pyrido[3′,2′:4,5]thieno [3,2-d]pyrimidin-4-amine dihydrochloride] | 
2100 | 52.9 | Cc1nnc2sc3c(N4CC(C(N)=O)C4)ncnc3c2c1C [Compound 104, 1-(3,4-dimethylpyrimido [4′,5′:4,5]thieno[2,3-c]pyridazin-8-yl)azetidine-3-carboxamide] | 
49.1 | 108 | Cc1nnc2sc3c(NCc4ccc(CN5CCCC5C(C)(C)O)cc4)ncnc3c2c1C (stereo not drawn) [Compound 117, 2-[1-[[4-[[(3,4-dimethylpyrimido [4′,5′:4,5]thieno[2,3-c]pyridazin-8-yl)amino]methyl]phenyl]methyl]pyrrolidin-2-yl]propan-2-ol] | 
 |  | Cc1cc(C)c2c(n1)oc1c(NC3CN(c4ncc(F)cn4)C3)ncnc12 [Compound 59, N-[1-(5-fluoropyrimidin-2-yl)azetidin-3-yl]-7,9-dimethyl-pyrido[3′,2′:4,5]furo[3,2-d]pyrimidin-4-amine hydrochloride] | Emax (Human M4): 34.9%
762 | 88.7 | COCC1CN(c2ncnc3c2sc2nc(C)cc(C)c23)C1 [Compound 194, 4-[3-(methoxymethyl)azetidin-1-yl]-7.9-dimethyl-pyrido [3′,2′:4,5]thieno[3,2-d] pyrimidine] | 
570 | 98.5 | Cc1nnc2sc3c(NCc4ccc(F)c(C(=O)NC5CCC5)c4)ncnc3c2c1C [Compound 177, N-cyclobutyl-5-[[(3,4-dimethylpyrimido [4′,5′:4,5]thieno[2,3-c]pyridazin-8-yl)amino]methyl]-2-fluoro-benzamide] | 
151 | 50 | CCC(C)(O)c1ccc(CNc2ncnc3c2sc2nnc(C)c(C)c23)cc1 (stereo not drawn) [Compound 116, 2-[4-[[(3,4-dimethylpyrimido [4′,5′:4,5]thieno[2,3-c]pyridazin-8-yl)amino]methyl]phenyl]butan-2-ol] | 
3230 | 70 | Cc1c(Cl)cnc2sc3c(NC4CCC4)ncnc3c12 [Compound 228, 8-chloro-N-cyclobutyl-9-methyl-pyrido [3′,2′:4,5]thieno[3,2-d] pyrimidin-4-amine] | 
47.7 | 117 | COc1nnc2sc3c(N4CCCC4)ncnc3c2c1C [Compound 281, 3-methoxy-4-methyl-8-pyrrolidin-1-yl-pyrimido [4′,5′:4,5]thieno[2,3-c] pyridazine] | 
44.6 | 65.1 | Cc1c(Cl)nnc2sc3c(NC4CCC4)ncnc3c12 [Compound 210, 3-chloro-N-cyclobutyl-4-methyl-pyrimido [4′,5′:4,5]thieno[2,3-c] pyridazin-8-amine] | 
481 | 49 | Cc1c(Cl)cnc2sc3c(NC4(C)CC4)ncnc3c12 [Compound 226, 8-chloro-9-methyl-N-(1-methylcyclopropyl) pyrido[3′,2′:4,5]thieno [3,2-d]pyrimidin-4-amine] | 
244 | 86.1 | Cc1nnc2sc3c(NCc4ccc(C(=O)N[C@H](C)C(F)(F)F)cc4)ncnc3c2c1C [Compound 157, 4-[[(3,4-dimethylpyrimido [4′,5′:4,5]thieno[2,3-c]pyridazin-8-yl)amino]methyl]-N-[(1R)-2,2,2-trifluoro-1-methyl-ethyl]benzamide] | 
 | 70.9 | Cc1nc2sc3c(N4CC5(COC5)C4)ncnc3c2c(C)c1Cl [Compound 260, 6-(8-chloro-7,9-dimethyl-pyrido [3′,2′:4,5]thieno[3,2-d]pyrimidin-4-yl)-2-oxa-6-azaspiro[3.3]heptane hydrochloride] | 
2950 | 39.5 | Cc1nnc2sc3c(NC4CC5(C4)CN(C(=O)c4ccc(C(F)(F)F)cc4)C5)ncnc3c2c1C [Compound 172, [6-[(3,4-dimethylpyrimido [4′,5′:4,5]thieno[2,3-c]pyridazin-8-yl)amino]-2-azaspiro[3.3]heptan-2-yl]-[4-(trifluoromethyl)phenyl]methanone] | 
395 | 61.4 | Cc1nnc2sc3c(N4CC(N)C4)ncnc3c2c1C [Compound 95, 1-(3,4-dimethylpyrimido [4′,5′:4,5]thieno[2,3-c]pyridazin-8-yl) azetidin-3-amine] | 
